Data as given in patent US9839632B2, “Methods and compositions using 4-amino-2-(2,6-dioxo-piperidine-3-yl)-isoindoline-1,3-dione for treatment and management of central nervous system cancers” (CELGENE CORPORATION, priority 2013, dated 2017).

Key:
[1] = system: human monocyte U937 cells; test: Phagocytosis assay, human monocyte U937 cells; assay type: cell-based; details: 3 or 10 ug/ml, 48 hours, P<0.05 vs control
Protocol: Phagocytosis assay: The impact of 4-amino-2-(2,6-dioxo-piperidine-3-yl)-isoindoline-1,3-dione on the phagocytic activity of macrophages was assessed in primary microglial cells and human monocyte cells (U937). The cells were cultured in complete medium for 4 days. They were then harvested and resuspended in Opti-MEM medium at 10^6 cells/ml and seeded in a 96 well plate at 100,000 viable cells/well. The experimental wells were treated with 4-amino-2-(2,6-dioxo-piperidine-3-yl)-isoindoline-1,3-dione 3 or 10 ug/ml. After 48 hours of treatment, the culture medium was quickly replaced with 100 ul of pHrodo BioParticles suspension (Life technologies and the cells were incubated in the suspension at 37° C. for 2-3 hours. Following incubation, the plates were scanned at 550 nm/600 nm (excitation/emission) using fluorescence plate reader. The fluorescence activity reflects the phagocytic activity of the macrophages. The impact of 4-amino-2-(2,6-dioxo-piperidine-3-yl)-isoindoline-1,3-dione treatment (% effect) was calculated as a fraction of the phagocytic activity in the positive control wells. Wan, C. P.; et al., J. Immunol. Methods, 1993, 162, pp. 1-7.

[2] = system: U937 cells cocultured with OCI-LY10 lymphoma cells; test: Polarization of U937 cocultured with OCI-LY10 lymphoma cells with or without YTS NK cells; assay type: cell-based, human; details: for M2 polarization of U937 cells (FXIIIA, pSTAT6): coculture with OCI-LY10 lymphoma cells, without NK cells; for polarization status of U937 cells (iNOS, pSTAT1): triple culture with OCI-LY10 lymphoma cells and YTS NK cells, 10 ug/ml 48 hours
Protocol: Raji lymphoma cells (ATCC), U937 human monocyte cells (ATCC) and YTS NK cells (a gift from Dr. Pamela A. Becker) were cultured at 37° C. in a humidified incubator under 5% CO2 and 95% air in RPMI-1640 supplemented with 20% FCS and 1% penicillin-streptomycin, and 1% nonessential amino acids.
OCI-LY10 lymphoma cells (a gift from Arthur L. Shaffer III) were cultured at 37° C. in a humidified incubator under 5% CO2 and 95% air in IMDM supplemented with 20% FCS and 1% penicillin-streptomycin. Co-culture of lymphoma cells and U937 monocytes: Raji and U937 monocytes were cultured at 37° C. in a humidified incubator under 5% CO2 and 95% air in RPMI-1640 supplemented with 20% FCS and 1% penicillin-streptomycin, and 1% nonessential amino acids. OCI-LY10 and U937 monocytes were cultured at 37° C. in a humidified incubator under 5% CO2 and 95% air in IMDM supplemented with 20% FCS and 1% penicillin-streptomycin. Triple culture of lymphoma cells, U937 monocytes and YTS cells: Raji, U937 and YTS cells were cultured at 37° C. in a humidified incubator under 5% CO2 and 95% air in RPMI-1640 supplemented with 20% FCS and 1% penicillin-streptomycin, and 1% nonessential amino acids. OCI-LY10, U937 and YTS were cultured at 37° C. in a humidified incubator under 5% CO2 and 95% air in IMDM supplemented with 20% FCS and 1% penicillin-streptomycin.
Treatments: In experiments in which IL-4 was used to induce M2 polarization of macrophages, cells were treated with IL-4 (20 ng/ml) for 48 hours followed by treatment with 4-amino-2-(2,6-dioxo-piperidine-3-yl)-isoindoline-1,3-dione (10 ug/ml) or DMSO control for 48 hours. In triple cell culture experiments with lymphoma cells, macrophages, and NK cells, the treatment was with either DMSO or 4-amino-2-(2,6-dioxo-piperidine-3-yl)-isoindoline-1,3-dione (10 ug/ml) for 48 hours.
Immunofluorescence for analysis of macrophage polarization in cell culture experiments: Live cells were fixed in 10% formalin for 30 minutes at room temperature followed by permeabilization with PBS-0.2% Triton X-100 for 2 min. After blocking with PBS-5% goat serum-0.02% Triton X-100 for 30 minutes at 37° C., the cells were incubated overnight at 4° C. with rat monoclonal F4/80 antibody (for primary microglia cells, 1:200 Abcam), rat monoclonal CD11b (for U937, 1:200 Biolegend), rabbit polyclonal Ym1 antibody (for primary microglia cells and primary peritoneal macrophages, 1:200, Stemcell Technologies, Vancouver, Canada), rabbit polyclonal FXIII A antibody (for U937, 1:200, Abcam), mouse monoclonal p-STAT1 antibody (1:200, Abcam), rabbit polyclonal p-STAT6 antibody (1:200, Abcam) or rabbit iNOS antibody (1:200, Calbiochem). […]

[3] = listed as 4-amino-2-(2,6-dioxo-piperidine-3-yl)-isoindoline-1,3-dione

Nc1cccc2c1C(=O)N(C1CCC(=O)NC1=O)C2=O (centres unmarked) [Pomalidomide, 4-amino-2-(2,6-dioxo-piperidine-3-yl)-isoindoline-1,3-dione]
phagocytic activity [1]: significantly increased | M2 polarization of U937 cells (FXIIIA, pSTAT6) [2]: reversed | M2 polarization of U937 cells (FXIIIA, pSTAT6) [2, 3]: prevented the M2 polarization of macrophages but did not induce them into M1 polarization | polarization status of U937 cells (iNOS, pSTAT1) [2]: from M2 to M1 | polarization status of U937 cells (iNOS, pSTAT1) [2, 3]: became M1-polarized
